According to patent US20250098679A1, “HERBICIDAL PYRIDONE DERIVATIVES” (SYNGENTA CROP PROTECTION AG, priority 2021, published 2025):

Legend:
Type in all cases: in vivo
Settings in all cases: evaluated after 13 days
[1] = test system: Ipomoea hederacea (IPOHE); assay: Pre-emergence Test, Ipomoea hederacea (IPOHE)
[2] = test system: Ipomoea hederacea (IPOHE); assay: Post-emergence Test, Ipomoea hederacea (IPOHE); design: key to percentage damage caused to the plant, IPOHE (five-point scale): 5=81-100%, 4=61-80%, 3=41-60%, 2=21-40%, 1=0-20% damage
Summary of the method: (§1)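 Tested at 1000 g/ha unless otherwise stated. Plants were held at 24/16 °C day/night with a 14 h light period. Percent damage was read at 13 days and reported in five bands.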

Setaria faberi (SETFA) [3] = assay: Post-emergence Test, Setaria faberi (SETFA); design: key to percentage damage caused to the plant, SETFA (five-point scale): 5=81-100%, 4=61-80%, 3=41-60%, 2=21-40%, 1=0-20% damage
Summary of the method: as §1

Setaria faberi (SETFA) [4] = assay: Pre-emergence Test, Setaria faberi (SETFA)
[5] = test system: Amaranthus palmeri (AMAPA); assay: Pre-emergence Test, Amaranthus palmeri (AMAPA)
Zea mays (ZEAMX) [6] = assay: Post-emergence Test, Zea mays (ZEAMX); design: key to percentage damage caused to the plant, ZEAMX (five-point scale): 5=81-100%, 4=61-80%, 3=41-60%, 2=21-40%, 1=0-20% damage
Summary of the method: as §1

[7] = test system: Echinochloa crus-galli (ECHCG); assay: Pre-emergence Test, Echinochloa crus-galli (ECHCG)
[8] = test system: Amaranthus retoflexus (AMARE); assay: Post-emergence Test, Amaranthus retoflexus (AMARE); design: key to percentage damage caused to the plant, AMARE (five-point scale): 5=81-100%, 4=61-80%, 3=41-60%, 2=21-40%, 1=0-20% damage
Summary of the method: as §1

Zea mays (ZEAMX) [9] = assay: Pre-emergence Test, Zea mays (ZEAMX)
[10] = test system: Amaranthus palmeri (AMAPA); assay: Post-emergence Test, Amaranthus palmeri (AMAPA); design: key: 5=81-100%, 4=61-80%, 3=41-60%, 2=21-40%, 1=0-20% damage
Summary of the method: as §1

[11] = test system: Amaranthus retoflexus (AMARE); assay: Pre-emergence Test, Amaranthus retoflexus (AMARE)
[12] = test system: Echinochloa crus-galli (ECHCG); assay: Post-emergence Test, Echinochloa crus-galli (ECHCG); design: key to percentage damage caused to the plant, ECHCG (five-point scale): 5=81-100%, 4=61-80%, 3=41-60%, 2=21-40%, 1=0-20% damage
Summary of the method: as §1

SMILES | Pre-emergence Test IPOHE, percentage damage caused to the plant (five-point scale) ([1]; 1000 g/ha) | percentage damage caused to the plant, IPOHE (five-point scale) ([2]; 250 g/Ha) | percentage damage caused to the plant, IPOHE (five-point scale) ([2]; 1000 g/ha) | percentage damage caused to the plant, SETFA (five-point scale) (Setaria faberi (SETFA) [3]; 250 g/Ha) | percentage damage caused to the plant, SETFA (five-point scale) (Setaria faberi (SETFA) [3]; 1000 g/ha) | Pre-emergence Test SETFA, percentage damage caused to the plant (five-point scale) (Setaria faberi (SETFA) [4]; 1000 g/ha) | Pre-emergence Test AMAPA, percentage damage caused to the plant (five-point scale) ([5]; 1000 g/ha) | percentage damage caused to the plant, ZEAMX (five-point scale) (Zea mays (ZEAMX) [6]; 250 g/Ha) | percentage damage caused to the plant, ZEAMX (five-point scale) (Zea mays (ZEAMX) [6]; 1000 g/ha) | Pre-emergence Test ECHCG, percentage damage caused to the plant (five-point scale) ([7]; 1000 g/ha) | percentage damage caused to the plant, AMARE (five-point scale) ([8]; 250 g/Ha) | percentage damage caused to the plant, AMARE (five-point scale) ([8]; 1000 g/ha) | Pre-emergence Test ZEAMX, percentage damage caused to the plant (five-point scale) (Zea mays (ZEAMX) [9]; 1000 g/ha) | percentage damage caused to the plant, AMAPA (five-point scale) ([10]; 250 g/Ha) | percentage damage caused to the plant, AMAPA (five-point scale) ([10]; 1000 g/ha) | Pre-emergence Test AMARE, percentage damage caused to the plant (five-point scale) ([11]; 1000 g/ha) | percentage damage caused to the plant, ECHCG (five-point scale) ([12]; 250 g/Ha) | percentage damage caused to the plant, ECHCG (five-point scale) ([12]; 1000 g/ha) | also measured
CCn1c(Cn2nc(C)cc2C)cc(=O)c(C(=O)O)c1-c1ccc(Cl)c(Cl)c1 [Compound 39, 2-(3,4-dichlorophenyl)-6-[(3,5-dimethylpyrazol-1-yl)methyl]-1-ethyl-4-oxo-pyridine-3-carboxylic acid] | 2 (2=21-40%) | 2 (2=21-40%) | 2 (2=21-40%) | 1 (1=0-20%) | 4 (4=61-80%) | 3 (3=41-60%) | 1 (1=0-20%) | 0 | 4 (4=61-80%) | 4 (4=61-80%) | 2 (2=21-40%) | 2 (2=21-40%) | 0 | 1 (1=0-20%) | 2 (2=21-40%) | 1 (1=0-20%) | 3 (3=41-60%) | 4 (4=61-80%) | –
CCn1c(Cn2cc(Cl)cn2)cc(=O)c(C(=O)O)c1-c1ccc(Cl)c(Cl)c1 [Compound 14, 6-[(4-chloropyrazol-1-yl)methyl]-2-(3,4-dichlorophenyl)-1-ethyl-4-oxo-pyridine-3-carboxylic acid] | 0 | 3 (3=41-60%) | 3 (3=41-60%) | 2 (2=21-40%) | 4 (4=61-80%) | 5 (5=81-100%) | 1 (1=0-20%) | 1 (1=0-20%) | 1 (1=0-20%) | 5 (5=81-100%) | 1 (1=0-20%) | 1 (1=0-20%) | 0 | 1 (1=0-20%) | 3 (3=41-60%) | 1 (1=0-20%) | 1 (1=0-20%) | 4 (4=61-80%) | Pre-emergence Test IPOHE, percentage damage caused to the plant (five-point scale) ([1]; 250 g/Ha (*)): 0; Pre-emergence Test SETFA, percentage damage caused to the plant (five-point scale) (Setaria faberi (SETFA) [4]; 250 g/Ha (*)): 3 (3=41-60%); Pre-emergence Test AMAPA, percentage damage caused to the plant (five-point scale) ([5]; 250 g/Ha (*)): 0; Pre-emergence Test ECHCG, percentage damage caused to the plant (five-point scale) ([7]; 250 g/Ha (*)): 4 (4=61-80%); Pre-emergence Test ZEAMX, percentage damage caused to the plant (five-point scale) (Zea mays (ZEAMX) [9]; 250 g/Ha (*)): 0; Pre-emergence Test AMARE, percentage damage caused to the plant (five-point scale) ([11]; 250 g/Ha (*)): 0
CCOC(=O)c1c(C)cnn1Cc1cc(=O)c(C(=O)O)c(-c2ccc(Cl)c(Cl)c2)n1CC [Compound 122, 2-(3,4-dichlorophenyl)-6-[(5-ethoxycarbonyl-4-methyl-pyrazol-1-yl)methyl]-1-ethyl-4-oxo-pyridine-3-carboxylic acid] | – | – | – | – | – | – | – | – | – | – | – | – | – | – | – | – | – | – | Pre-emergence Test IPOHE, percentage damage caused to the plant (five-point scale) ([1]; 250 g/Ha (*)): 0; Pre-emergence Test SETFA, percentage damage caused to the plant (five-point scale) (Setaria faberi (SETFA) [4]; 250 g/Ha (*)): 1 (1=0-20%); Pre-emergence Test AMAPA, percentage damage caused to the plant (five-point scale) ([5]; 250 g/Ha (*)): 1 (1=0-20%); Pre-emergence Test ECHCG, percentage damage caused to the plant (five-point scale) ([7]; 250 g/Ha (*)): 0; Pre-emergence Test ZEAMX, percentage damage caused to the plant (five-point scale) (Zea mays (ZEAMX) [9]; 250 g/Ha (*)): 0; Pre-emergence Test AMARE, percentage damage caused to the plant (five-point scale) ([11]; 250 g/Ha (*)): 0
CCn1c(Cn2cc(C(=O)OC)cn2)cc(=O)c(C(=O)OC(C)(C)C)c1-c1ccc(Cl)c(Cl)c1 [Compound 61, tert-butyl 2-(3,4-dichlorophenyl)-1-ethyl-6-[(4-methoxycarbonyl-pyrazol-1-yl)methyl]-4-oxo-pyridine-3-carboxylate] | 0 | – | 0 | – | 1 (1=0-20%) | 1 (1=0-20%) | 1 (1=0-20%) | – | 0 | – | – | 1 (1=0-20%) | 0 | – | 0 | 1 (1=0-20%) | – | 0 | –
CCn1c(Cn2ncc(Cl)c2C)cc(=O)c(C(=O)O)c1-c1ccc(Cl)c(Cl)c1 [Compound 88, 6-[(4-chloro-5-methyl-pyrazol-1-yl)methyl]-2-(3,4-dichlorophenyl)-1-ethyl-4-oxo-pyridine-3-carboxylic acid] | 2 (2=21-40%) | 2 (2=21-40%) | 2 (2=21-40%) | 0 | 4 (4=61-80%) | 2 (2=21-40%) | – | 0 | 3 (3=41-60%) | 3 (3=41-60%) | 1 (1=0-20%) | 1 (1=0-20%) | 1 (1=0-20%) | 1 (1=0-20%) | 2 (2=21-40%) | – | 3 (3=41-60%) | 2 (2=21-40%) | –
CCOC(=O)c1c(-c2ccc(Cl)c(Cl)c2)n(CC)c(Cn2ncc3cnc(Cl)cc32)cc1=O [Compound 52, ethyl 6-[(6-chloropyrazolo[4,3-c]pyridin-1-yl)methyl]-2-(3,4-dichlorophenyl)-1-ethyl-4-oxo-pyridine-3-carboxylate] | 0 | – | 2 (2=21-40%) | – | 1 (1=0-20%) | 0 | 1 (1=0-20%) | – | 0 | – | – | 0 | 0 | – | 2 (2=21-40%) | 1 (1=0-20%) | – | 1 (1=0-20%) | –
CCn1c(Cn2nc(-c3ccccc3)cc2C(F)(F)F)cc(=O)c(C(=O)O)c1-c1ccc(Cl)c(Cl)c1 [Compound 198, 2-(3,4-dichlorophenyl)-1-ethyl-4-oxo-6-[[3-phenyl-5-(trifluoromethyl)pyrazol-1-yl]methyl]pyridine-3-carboxylic acid] | 0 | – | – | – | – | – | 1 (1=0-20%) | – | – | 1 (1=0-20%) | – | – | 1 (1=0-20%) | – | – | 1 (1=0-20%) | – | – | Post-emergence Test IPOHE, percentage damage caused to the plant (five-point scale) ([2]; 250 g/Ha (*)): 1 (1=0-20%); Post-emergence Test IPOHE, percentage damage caused to the plant (five-point scale) ([2]; 1000 g/ha): 2 (2=21-40%); Post-emergence Test SETFA, percentage damage caused to the plant (five-point scale) (Setaria faberi (SETFA) [3]; 1000 g/ha): 2 (2=21-40%); Post-emergence Test ZEAMX, percentage damage caused to the plant (five-point scale) (Zea mays (ZEAMX) [6]; 250 g/Ha (*)): 1 (1=0-20%); Post-emergence Test ZEAMX, percentage damage caused to the plant (five-point scale) (Zea mays (ZEAMX) [6]; 1000 g/ha): 2 (2=21-40%); Post-emergence Test AMARE, percentage damage caused to the plant (five-point scale) ([8]; 250 g/Ha (*)): 1 (1=0-20%); Post-emergence Test AMARE, percentage damage caused to the plant (five-point scale) ([8]; 1000 g/ha): 4 (4=61-80%); Post-emergence Test AMAPA, percentage damage caused to the plant (five-point scale) ([10]; 250 g/Ha (*)): 1 (1=0-20%); Post-emergence Test AMAPA, percentage damage caused to the plant (five-point scale) ([10]; 1000 g/ha): 3 (3=41-60%); Post-emergence Test ECHCG, percentage damage caused to the plant (five-point scale) ([12]; 250 g/Ha (*)): 2 (2=21-40%)
